How the values were obtained:
[1] = test system: most sensitive cancer cell line; test: cell activity: CTG anti-proliferation in most sensitive cancer cell line; assay type: cell-based; details: APA analogs
[2] = target: T1, LKB1 (Homo sapiens, UniProt Q15831+Q7RTN6); test: in vitro LKB1 functional activity; assay type: biochemical; details: APA analogs
T1 sequence (Q15831 1-433): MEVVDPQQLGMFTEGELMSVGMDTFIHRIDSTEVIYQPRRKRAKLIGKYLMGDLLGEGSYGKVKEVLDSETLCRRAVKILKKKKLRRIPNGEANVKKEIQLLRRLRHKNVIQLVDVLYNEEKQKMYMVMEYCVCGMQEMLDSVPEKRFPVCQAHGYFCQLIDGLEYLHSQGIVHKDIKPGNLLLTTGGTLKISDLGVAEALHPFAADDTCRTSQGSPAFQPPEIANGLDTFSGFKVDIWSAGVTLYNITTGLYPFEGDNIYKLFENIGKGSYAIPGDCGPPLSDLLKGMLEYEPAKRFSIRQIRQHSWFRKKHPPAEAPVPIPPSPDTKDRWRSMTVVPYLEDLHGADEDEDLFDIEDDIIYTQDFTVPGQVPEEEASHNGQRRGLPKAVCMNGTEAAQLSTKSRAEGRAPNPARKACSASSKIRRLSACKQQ
T1 sequence (Q7RTN6 1-431): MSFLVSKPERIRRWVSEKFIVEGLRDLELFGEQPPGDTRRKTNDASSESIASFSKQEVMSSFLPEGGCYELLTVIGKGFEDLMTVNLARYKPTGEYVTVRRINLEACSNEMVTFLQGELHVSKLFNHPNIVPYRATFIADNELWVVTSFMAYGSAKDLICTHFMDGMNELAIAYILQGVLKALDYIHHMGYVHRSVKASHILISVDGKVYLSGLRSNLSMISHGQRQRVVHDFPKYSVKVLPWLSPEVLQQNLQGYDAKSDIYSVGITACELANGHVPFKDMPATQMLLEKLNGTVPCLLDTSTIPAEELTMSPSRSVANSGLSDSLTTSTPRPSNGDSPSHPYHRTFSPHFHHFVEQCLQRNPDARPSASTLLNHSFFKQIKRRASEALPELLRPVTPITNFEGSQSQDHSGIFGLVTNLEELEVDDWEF
T1 sequence (Q9Y376 1-341 partner): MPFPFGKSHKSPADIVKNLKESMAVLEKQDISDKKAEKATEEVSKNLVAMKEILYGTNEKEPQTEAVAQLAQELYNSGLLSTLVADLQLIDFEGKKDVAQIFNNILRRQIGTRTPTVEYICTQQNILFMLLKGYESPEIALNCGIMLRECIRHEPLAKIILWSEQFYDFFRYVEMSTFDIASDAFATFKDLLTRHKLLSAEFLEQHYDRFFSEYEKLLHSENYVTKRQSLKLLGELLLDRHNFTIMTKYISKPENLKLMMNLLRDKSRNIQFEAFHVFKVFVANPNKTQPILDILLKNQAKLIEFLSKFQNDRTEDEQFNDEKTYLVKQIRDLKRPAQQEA

Row | Compound | IC50 [1] | LKB1 % Act. Increase [2]
1 | CC(=O)NS(=O)(=O)c1ccc(NC(=O)c2nc(-c3cc(F)ccc3C#N)cnc2N)cc1 [SU20668-0371, N-(4-(N-acetylsulfamoyl)phenyl)-3-amino-6-(2-cyano-5-fluorophenyl)pyrazine-2-carboxamide] | 3 to 50 µM | A (A=>4000%)
2 | CCO[P@](=O)(CC)CS(=O)(=O)c1ccc(NC(=O)c2nc(-c3ccc(C)cc3)cnc2N)cc1 [SU20668-0521, (R)-ethyl (4-(3-amino-6-p-tolylpyrazine-2-carboxamido)phenylsulfonyl)methyl(ethyl)phosphinate] | < 3 µM | A (A=>4000%)
3 | Cc1ccc(-c2cnc(N)c(C(=O)Nc3ccc(S(N)(=O)=O)cc3)n2)cc1 [SU20668-0197, 3-amino-N-(4-sulfamoylphenyl)-6-p-tolylpyrazine-2-carboxamide] | < 3 µM | B (B=399-2000%)
4 | CO[P@](C)(=O)CS(=O)(=O)c1ccc(NC(=O)c2nc(-c3ccc(C)cc3)cnc2N)cc1 [SU20668-0520, (S)-methyl (4-(3-amino-6-p-tolylpyrazine-2-carboxamido)phenylsulfonyl)methyl(methyl)phosphinate] | < 3 µM | A (A=>4000%)
5 | Cc1ccc(-c2cnc(N)c(C(=O)Nc3ccc(S(=O)(=O)NC4COC4)cc3)n2)cc1 [SU20668-0468, 3-amino-N-(4-(N-oxetan-3-ylsulfamoyl)phenyl)-6-p-tolylpyrazine-2-carboxamide] | < 3 µM | C (C=199-1000%)
6 | Cc1ccc(-c2cnc(N)c(C(=O)Nc3ccc(S(=O)(=O)CC4COC4)cc3)n2)cc1 [SU20668-0494, 3-amino-N-(4-(oxetan-3-ylmethylsulfonyl)phenyl)-6-p-tolylpyrazine-2-carboxamide] | < 3 µM | A (A=>4000%)
7 | CCOP(=O)(OCC)C(F)S(=O)(=O)c1ccc(NC(=O)c2nc(-c3ccc(C)cc3)cnc2N)cc1 (centres unmarked) [SU20668-0485] | < 3 µM | 
8 | CC(=O)N[S@SP3](=O)(=O)c1ccc(NC(=O)c2nc(-c3ccc(C)cc3)cnc2N)cc1 [SU20668-0314, N-(4-(N-acetylsulfamoyl)phenyl)-3-amino-6-p-tolylpyrazine-2-carboxamide] | 3 to 50 µM | C (C=199-1000%)
9 | CCOP(=O)(CC)CS(=O)(=O)c1ccc(NC(=O)c2nc(-c3ccc(C)cc3)cnc2N)cc1 (centres unmarked) [SU20668-0515, ethyl (4-(3-amino-6-p-tolylpyrazine-2-carboxamido)phenylsulfonyl)methyl(ethyl)phosphinate] | < 3 µM | B (B=399-2000%)
10 | CCOP(C)(=O)CS(=O)(=O)c1ccc(NC(=O)c2nc(-c3ccc(C)cc3)cnc2N)cc1 (centres unmarked) [SU20668-0472, ethyl (4-(3-amino-6-p-tolylpyrazine-2-carboxamido)phenylsulfonyl)methyl(methyl)phosphinate] | < 3 µM | A (A=>4000%)
11 | CCO[P@@](=O)(CC)CS(=O)(=O)c1ccc(NC(=O)c2nc(-c3ccc(C)cc3)cnc2N)cc1 [SU20668-0522, (S)-ethyl (4-(3-amino-6-p-tolylpyrazine-2-carboxamido)phenylsulfonyl)methyl(ethyl)phosphinate] | < 3 µM | B (B=399-2000%)
12 | COP(=O)(CS(=O)(=O)c1ccc(NC(=O)c2nc(-c3ccc(C)cc3)cnc2N)cc1)OC [SU20668-0329, dimethyl (4-(3-amino-6-p-tolylpyrazine-2-carboxamido)phenylsulfonyl)methylphosphonate] | < 3 µM | A (A=>4000%)
13 | CCOP(=O)(C[S@SP3](=O)(=O)c1ccc(NC(=O)c2nc(-c3ccc(C)cc3)cnc2N)cc1)OCC [SU20668-0313, diethyl (((4-(3-amino-6-(p-tolyl)pyrazine-2-carboxamido)phenyl)sulfonyl)methyl)phosphonate] | < 3 µM | C (C=199-1000%)
14 | CC(=O)NS(=O)(=O)c1ccc(NC(=O)c2nc(-c3ccc(S(N)(=O)=O)cc3)cnc2N)cc1 [SU20668-0351, N-(4-(N-acetylsulfamoyl)phenyl)-3-amino-6-(4-sulfamoylphenyl)pyrazine-2-carboxamide] |  | C (C=199-1000%)
15 | Cc1ccc(-c2cnc(N)c(C(=O)Nc3ccc(C(=O)O)cc3)n2)cc1 [SU20668-0279, 4-(3-amino-6-p-tolylpyrazine-2-carboxamido)benzoic acid] |  | C (C=199-1000%)
16 | Cc1ccc(-c2cnc(N)c(C(=O)Nc3ccc(P(=O)(O)O)cc3)n2)cc1 [SU20668-0196, 4-(3-amino-6-p-tolylpyrazine-2-carboxamido)phenylphosphonic acid] |  | C (C=199-1000%)
17 | COP(=O)(CS(=O)(=O)c1ccc(NC(=O)c2nc(-c3ccc(C)c(O)c3)cnc2N)cc1)OC [SU20668-0496, dimethyl (4-(3-amino-6-(3-hydroxy-4-methylphenyl)pyrazine-2-carboxamido)phenylsulfonyl)methylphosphonate] |  | C (C=199-1000%)
18 | COP(=O)(CS(=O)(=O)c1ccc(NC(=O)c2nc(-c3cc(F)ccc3C#N)cnc2N)cc1)OC [SU20668-0446, dimethyl (4-(3-amino-6-(2-cyano-5-fluorophenyl)pyrazine-2-carboxamido)phenylsulfonyl)methylphosphonate] |  | D (D=<1000%)
19 | CC(=O)NS(=O)(=O)c1ccc(NC(=O)c2nc(-c3cccc(N4CCOCC4)c3)cnc2N)cc1 [SU20668-0377, N-(4-(N-acetylsulfamoyl)phenyl)-3-amino-6-(3-morpholinophenyl)pyrazine-2-carboxamide] |  | D (D=<1000%)
20 | CC(=O)NS(=O)(=O)c1ccc(NC(=O)c2nc(-c3ccc4cc[nH]c4c3)cnc2N)cc1 [SU20668-0345, N-(4-(N-acetylsulfamoyl)phenyl)-3-amino-6-(1H-indol-6-yl)pyrazine-2-carboxamide] |  | C (C=199-1000%)
21 | CCOP(=O)(OCC)c1ccc(NC(=O)c2nc(-c3ccc(C)cc3)cnc2N)cc1 [SU20668-0211, diethyl 4-(3-amino-6-p-tolylpyrazine-2-carboxamido)phenylphosphonate] |  | D (D=<1000%)
22 | CO[P@@](C)(=O)CS(=O)(=O)c1ccc(NC(=O)c2nc(-c3ccc(C)cc3)cnc2N)cc1 [SU20668-0519, (R)-methyl (4-(3-amino-6-p-tolylpyrazine-2-carboxamido)phenylsulfonyl)methyl(methyl)phosphinate] | < 3 µM | A (A=>4000%)
23 | CC(=O)NS(=O)(=O)c1ccc(NC(=O)c2nc(-c3ccc(C)c(F)c3)cnc2N)cc1 [SU20668-0390, N-(4-(N-acetylsulfamoyl)phenyl)-3-amino-6-(3-fluoro-4-methylphenyl)pyrazine-2-carboxamide] |  | D (D=<1000%)
24 | Cc1ccc(-c2cnc(N)c(C(=O)Nc3ccc(S(N)(=O)=O)c(F)c3)n2)cc1 [SU20668-0305, 3-amino-N-(3-fluoro-4-sulfamoylphenyl)-6-p-tolylpyrazine-2-carboxamide] | < 3 µM | C (C=199-1000%)
25 | CC(=O)NS(=O)(=O)c1ccc(NC(=O)c2nc(-c3ccc(C)s3)cnc2N)cc1 [SU20668-0349, N-(4-(N-acetylsulfamoyl)phenyl)-3-amino-6-(5-methylthiophen-2-yl)pyrazine-2-carboxamide] | 3 to 50 µM | C (C=199-1000%)
26 | Cc1ccc(-c2cnc(N)c(C(=O)Nc3ccc(S(=O)(=O)NS(C)(=O)=O)cc3)n2)cc1 [SU20668-0470, 3-amino-N-(4-(N-(methylsulfonyl)sulfamoyl)phenyl)-6-p-tolylpyrazine-2-carboxamide] |  | D (D=<1000%)
